Tests used:
[1] = molecular target: Human immunodeficiency virus type 1 protease (Human immunodeficiency virus 1, UniProt Q72874); assay: In vitro inhibitory activity against HIV-1 protease was evaluated
[2] = test system: Human immunodeficiency virus 1; assay: Inhibition of viral spread in MT-4 human lymphoid cells infected with the HIV-IIIb isolate; format: functional; conditions: Human immunodeficiency virus 1, lymphoid; read-out: CIC95
[3] = Time taken for maximum plasma concentration in dog; format: ADME, organism-based, Canis lupus familiaris
[4] = Maximum plasma concentration in dog; format: ADME, organism-based, Canis lupus familiaris
[5] = Oral bioavailability in dog; format: ADME, organism-based, Canis lupus familiaris; conditions: in vivo

Row | Structure (SMILES) | IC50 [1] | IC95 [2] | further results
1 | CC(C)(C)NC(=O)[C@@H]1CN(C(=O)OCc2ccccc2)CCN1C[C@H](O)[C@H](Cc1ccccc1)NC(=O)O[C@H]1CCOC1 | 12000 nM |  | 
2 | CC(C)(C)NC(=O)[C@@H]1CN(Cc2ccncc2)CCN1C[C@@H](O)[C@H](Cc1ccccc1)NC(=O)O[C@H]1CCOC1 | 293 nM | 1.5 µM | 
3 | CC(C)(C)NC(=O)[C@@H]1CN(C(=O)c2cccnc2)CCN1C[C@@H](O)[C@H](Cc1ccccc1)NC(=O)O[C@H]1CCOC1 | 371 nM |  | 
4 | CC(C)(C)NC(=O)[C@@H]1CN(C(=O)c2ccncc2)CCN1C[C@@H](O)[C@H](Cc1ccccc1)NC(=O)O[C@H]1CCOC1 | 132 nM |  | 
5 | CC(C)[C@@H]1[C@H](OC(=O)N[C@@H](Cc2ccccc2)[C@H](O)CN2CCN(Cc3cc(Cl)cc(Cl)c3)C[C@H]2C(=O)NC(C)(C)C)CCS1(=O)=O |  | 0.1 µM | 
6 | CC(C)(C)NC(=O)[C@@H]1CN(C(=O)OCc2ccccc2)CCN1C[C@@H](O)[C@H](Cc1ccccc1)NC(=O)O[C@H]1CCOC1 | 18.9 nM |  | 
7 | CC(C)[C@@H]1[C@H](OC(=O)N[C@@H](Cc2ccccc2)[C@H](O)CN2CCN(Cc3cccc(O)c3)C[C@H]2C(=O)NC(C)(C)C)CCS1(=O)=O |  | 0.1 µM | Tmax [3]: 25 min; Cmax [4]: 4 µM
8 | CC(C)[C@@H]1[C@H](OC(=O)N[C@@H](Cc2ccccc2)[C@H](O)CN2CCN(Cc3ccc4ccccc4c3)C[C@H]2C(=O)NC(C)(C)C)CCS1(=O)=O |  | 0.05 µM | 
9 | CC(C)(C)NC(=O)[C@@H]1CN(Cc2cccnc2)CCN1C[C@@H](O)[C@H](Cc1ccccc1)NC(=O)O[C@H]1CCOC1 | 676 nM | 1.5 µM | 
10 | Cc1cc(CN2CCN(C[C@@H](O)[C@H](Cc3ccccc3)NC(=O)O[C@@H]3CCS(=O)(=O)[C@@H]3C(C)C)[C@H](C(=O)NC(C)(C)C)C2)cc(Cl)n1 |  | 0.05 µM | bioavailability [5]: 34.8%
11 | CC(C)[C@@H]1[C@H](OC(=O)N[C@@H](Cc2ccccc2)[C@H](O)CN2CCN(Cc3ccncc3)C[C@H]2C(=O)NC(C)(C)C)CCS1(=O)=O |  | 0.2 µM | Cmax [4]: 6.5 µM
12 | CC(C)(C)NC(=O)[C@@H]1CN(CCCc2ccccc2)CCN1C[C@@H](O)[C@H](Cc1ccccc1)NC(=O)O[C@H]1CCOC1 | 175 nM |  | 
13 | CC(C)(C)NC(=O)[C@@H]1CN(CCc2ccccc2)CCN1C[C@@H](O)[C@H](Cc1ccccc1)NC(=O)O[C@H]1CCOC1 | 478 nM |  | 
14 | CC(C)(C)NC(=O)[C@@H]1CN(C(=O)c2ccccc2)CCN1C[C@@H](O)[C@H](Cc1ccccc1)NC(=O)O[C@H]1CCOC1 | 414 nM |  | 
15 | CC(C)(C)NC(=O)[C@@H]1CN(Cc2ccccn2)CCN1C[C@@H](O)[C@H](Cc1ccccc1)NC(=O)O[C@H]1CCOC1 | 957 nM |  | 
16 | CC(C)(C)NC(=O)[C@@H]1CN(Cc2ccccc2)CCN1C[C@@H](O)[C@H](Cc1ccccc1)NC(=O)O[C@H]1CCOC1 | 102 nM |  | 
17 | CC(C)(C)NC(=O)[C@@H]1CN(Cc2ccc(O)cc2)CCN1C[C@@H](O)[C@H](Cc1ccccc1)NC(=O)O[C@H]1CCOC1 | 153 nM |  | 
18 | CC(C)(C)NC(=O)[C@@H]1CN(Cc2ccccc2O)CCN1C[C@@H](O)[C@H](Cc1ccccc1)NC(=O)O[C@H]1CCOC1 | 102 nM |  | 
19 | CC(C)(C)NC(=O)[C@@H]1CN(Cc2cccc(O)c2)CCN1C[C@@H](O)[C@H](Cc1ccccc1)NC(=O)O[C@H]1CCOC1 | 482 nM | 0.4 µM | 
20 | Cc1ccc(CN2CCN(C[C@@H](O)[C@H](Cc3ccccc3)NC(=O)O[C@@H]3CCS(=O)(=O)[C@@H]3C(C)C)[C@H](C(=O)NC(C)(C)C)C2)cn1 |  | 0.1 µM | 
21 | Cc1cc(C)cc(CN2CCN(C[C@@H](O)[C@H](Cc3ccccc3)NC(=O)O[C@@H]3CCS(=O)(=O)[C@@H]3C(C)C)[C@H](C(=O)NC(C)(C)C)C2)c1 |  | 0.1 µM | 
22 | CC(C)(C)NC(=O)[C@@H]1CN(C(=O)c2ccccn2)CCN1C[C@@H](O)[C@H](Cc1ccccc1)NC(=O)O[C@H]1CCOC1 | 257 nM |  | 
